Read-outs that look alike come from different tables or passages of the source. Peptide text beside a SMILES is read from it.
What was measured:
human erythrocytes = assay type: cell-based
Method: Hemolytic properties of the test substances and their combinations were assessed as previously described. Whole human blood was collected from healthy donors by venipuncture into sterile EDTA-covered vacuum tubes, diluted 10 times with ice-cold phosphate-buffered saline (PBS) containing 4mM EDTA for the start, and then washed out twice with still ice-cold but anticoagulant-free PBS by a 10 min long centrifugation at 300× g and 4 °C to remove plasma and anticoagulant altogether. […] Samples were incubated for 30 min at 37 °C and then supplied with 90 µL of ice-cold PBS to stop further hemolysis. Remaining RBCs or their debris were precipitated by 4 min of centrifugation at 10,000× g and room temperature, and 100 µL of the supernatants was transferred to a 96-well clear flat-bottom test plate to spectrophotometrically detect hemoglobin released from the damaged RBCs. OD was measured at 540 nm—one of the hemoglobin absorbance maxima. The samples with 6 µL of pure PBS (with no potentially hemolytic agents) were used as a 0% lysis reference point. Experimental samples were compared with 0% lysis control by the Mann–Whitney U-test (p < 0.05) to identify statistically significant hemolytic action. In case the exact level of effect was of interest, the samples with 6 µL of 5% v/v Triton X-100 in PBS were also prepared to additionally obtain a 100% lysis reference point and calculate the percentage of hemolysis in test samples as hemolysis (%) = (ODsample − OD0% lysis)/(OD100% lysis − OD0% lysis) × 100%. At least three independent repeats were performed.
The absence “–” or presence “+” of a statistically significant difference compared with the intact control once exposed to the action of combinations of AMPs and antiseptics in concentrations equal to ½ or ¼ of their individual MECH was evaluated in a series of three independent experiments.

A. baumannii 7226/16 = assay: microbe, parasite or virus in culture; assay type: cell-based, Acinetobacter baumannii
Method: (§1) In this regard the test plates were preincubated for 1 h at 37 °C with 0.1% bovine serum albumin (BSA) in distilled water before use. Bacteria were grown overnight at 37 °C with shaking in 2.1% Müller–Hinton broth (MHB), and then a small aliquot was transferred into the fresh portion of the same medium for another 2–3 h on the day of the experiment to provide us with the log phase bacterial suspension. Concentration of bacterial cells in suspension was evaluated based on absorbance at 620 nm and diluted down to 1 × 10^6 CFU/mL with MHB. Equal volumes of the prepared bacterial suspension in MHB and two-fold serial dilutions of the antimicrobials in 10 mM sodium phosphate (Na-P) buffer (pH 7.4) with 0.1% BSA were mixed and incubated overnight at 37 °C. The lowest concentration where no bacterial growth was observed the next day under visual examination was considered the minimal inhibitory concentration. The test was repeated at least three times, and the final MIC value was established as a median result. Each experiment was conducted in triplicates. Terasaki microplates (10 µL end volume, V-shaped bottom; Sarstedt, Nümbrecht, Germany) were used.

[1] = system: K. pneumoniae ESBL 344/17; assay: microbe, parasite or virus in culture; assay type: cell-based, Klebsiella pneumoniae
Method: as §1

E. coli ML-35p = assay: Bacterial membrane permeability assay (nitrocefin / ONPG); assay type: cell-based, Escherichia coli
Text: Monitoring the ability of the test substances or their combinations to affect bacterial membranes and enhance their permeability over time was organized using a method first proposed by Prof. Lehrer’s scientific group. The idea is based on utilizing special markers that cannot spontaneously penetrate bacterial membranes until those are damaged but would be readily processed by the bacteria’s own enzymes into products of different color once they enter. Then, the product can be spectrophotometrically detected, and the dynamics of its accumulation can be associated with the scale and swiftness of the inflicted membrane impairment. The specific bacterial strain E. coli ML-35p was designed for the procedure. It is a descendant of E. coli ML-35, first identified during lac operon studies, deficient in lactopermease but constitutively expressing cytoplasmic β-galactosidase, that was modified with a plasmid vector to additionally provide it with a periplasmic β-lactamase. These modifications create the basis for the mentioned membrane damage detection approach, as there are two specifically placed enzymes, but their lactose/galactose-based substrates cannot enter bacterial cells on their own in the absence of lactopermeases.
Nitrocefin (Calbiochem-Novabiochem, San Diego, CA, USA), which can be converted by β-lactamase into a pink-colored product detectable at 486 nm once it reaches the periplasmic space, was used as a marker of the outer membrane permeability, and ONPG (o-nitrophenyl-β-D-galactoside, Sigma, St. Louis, MO, USA), producing yellow-colored o-nitrophenyl detectable at 420 nm once hydrolyzed by β-galactosidase in the bacterial cytoplasm, was likewise used as an indicator of inner membrane damage.
An overnight culture of E. coli ML-35p grown at 37 °C in 3% Trypticase soy broth (TSB) was washed of the medium twice with 10 mM Na-P buffer (pH 7.4) via a 10 min long centrifugation at 600 g and 4 °C and diluted down in the same buffer to 1 × 10^8 CFU/mL stock concentration based on the optical density (OD) of the suspension at 620 nm (the formula being concentration [CFU/mL] = OD620 × 2.5 × 10^8). The stock was preferably used immediately or kept at 4ᵒC for no more than 1 h. Experiments were carried out in 96-well clear flat-bottom plates. The 100 µL samples containing antimicrobials or their combinations in desired concentrations, 10 mM Na-P buffer (pH 7.4), 100 mM NaCl, 20 μM of nitrocefin or 2.5 mM of ONPG, and bacteria in a final concentration of 2.5 × 10^7 CFU/mL were made in duplicates. Controls included no antimicrobial substances. Bacterial suspension was the last component and was added just before the start of the measurement. OD values at the wavelengths of 420 and 486 nm were collected once per minute for 1–2 h using SpectraMax 250 Microplate Spectrophotometer (Molecular Devices, San Jose, CA, USA); samples were maintained at 37 °C with 5 s of shaking before each read.

[2] = antiseptics and surfactants, 2.5% v/v RBC in PBS, 30 min, 37 °C, median of 3 independent experiments, prontosan as polyhexanide
[3] = antiseptics and surfactants, MHB, overnight 37 °C, median of 3–4 independent experiments, prontosan as polyhexanide
[4] = intact bacteria and bacteria lysed by 4×MIC of PG-1

Molecule | MECH of hemolysis of human erythrocytes (human erythrocytes; [2]) [µg/mL] | MIC (A. baumannii 7226/16; [3]) [µg/mL] | MIC [1, 3] [µg/mL] | MECH of hemolysis of human erythrocytes (human erythrocytes) | Interference with nitrocefin degradation by bacterial β-lactamase (E. coli ML-35p; [4]) | MIC (A. baumannii 7226/16; 7226/16, 1 h) [µM] | MIC ([1]; ESBL 344/17, 1 h) [µM] | further results
[O-][n+]1c(CO)c(CO)[n+]([O-])c2ccccc21 [Dioxydin] | 500 | 31.2 | 15.6 | – | – | – | – | MECH (human erythrocytes): higher than 0.5 mg/mL; Effect on the membranolytic action of AMPs (E. coli ML-35p; ¼ MIC AMP + ¼ MIC antiseptic, poviargolum: outer membrane only, data not shown): did not cause significant changes in the dynamics of the membranolytic action of AMPs; Effect on permeability of bacterial membranes for chromogenic markers, substance alone (E. coli ML-35p; ¼ and ½ MIC, nitrocefin (outer) and ONPG (inner membrane), 10 mM Na-P buffer pH 7.4, 100 mM NaCl, 37 °C): did not significantly increase the permeability of bacterial membranes
CC(O)(P(=O)(O)O)P(=O)(O)O [Etidronic acid] | – | – | – | 5000 µg/mL | prevents said enzyme from splitting nitrocefin | – | – | MIC (A. baumannii 7226/16; Acinetobacter baumannii, 7226/16, antiseptics and surfactants, MHB, overnight 37 °C, median of 3–4 independent experiments, prontosan as polyhexanide, read-out: MIC): 12500 µg/mL; MIC ([1]; Klebsiella pneumoniae, ESBL344/17, antiseptics and surfactants, MHB, overnight 37 °C, median of 3–4 independent experiments, prontosan as polyhexanide, read-out: MIC): 50000 µg/mL; Interference with ONPG processing by cytoplasmic β-galactosidase (E. coli ML-35p; [4]): fully blocked the processing of ONPG
Cocamidopropyl betaine | 1 | 78.1 | 156.2 | – | block the degradation of nitrocephin by β-lactamase | – | – | –
CC[C@H](C)[C@H](NC(=O)[C@H](CCCNC(=N)N)NC(=O)[C@@H](NC(=O)[C@@H]1CCCN1C(=O)[C@@H]1CCCN1C(=O)[C@H](CCCNC(=N)N)NC(=O)[C@H](CCCNC(=N)N)NC(=O)[C@H](Cc1ccccc1)NC(=O)[C@@H]1CCCN1C(=O)[C@H](CC(C)C)NC(=O)[C@H](CCCNC(=N)N)NC(=O)[C@H](Cc1ccccc1)NC(=O)[C@@H](N)CCCNC(=N)N)[C@@H](C)CC)C(=O)N[C@@H](Cc1c[nH]cn1)C(=O)N1CCC[C@H]1C(=O)N1CCC[C@H]1C(=O)N1CCC[C@H]1C(=O)N[C@@H](Cc1ccccc1)C(=O)N[C@@H](Cc1ccc(O)cc1)C(=O)N1CCC[C@H]1C(=O)N1CCC[C@H]1C(=O)N[C@@H](Cc1ccccc1)C(=O)N[C@@H](CCCNC(=N)N)C(=O)N[C@@H](CCCNC(=N)N)C(=O)N[C@@H](Cc1ccccc1)C(=O)N[C@@H](CC(C)C)C(=O)O [ChBac3.4] (H-RFRLPFRRPPIRIHPPPFYPPFRRFL-OH; N-terminus assumed) | – | – | – | – | – | 6.2 | 3.1 | –
CC(C)C[C@H](NC(=O)[C@H](CCCNC(=N)N)NC(=O)CNC(=O)CNC(=O)[C@@H](N)CCCNC(=N)N)C(=O)N[C@H]1CSSC[C@@H](C(=O)N[C@H](C(=O)NCC(=O)N[C@@H](CCCNC(=N)N)C(N)=O)C(C)C)NC(=O)[C@H](C(C)C)NC(=O)[C@@H]2CSSC[C@H](NC(=O)[C@H](Cc3ccc(O)cc3)NC1=O)C(=O)N[C@@H](CCCNC(=N)N)C(=O)N[C@@H](CCCNC(=N)N)C(=O)N[C@@H](CCCNC(=N)N)C(=O)N[C@@H](Cc1ccccc1)C(=O)N2 [PG-1, protegrin 1] | – | – | – | 0.5 µM | – | 6.2 | 3.1 | –
